Laboratory results from US20100130579A1, “CANCER THERAPY” (Georgetown University, priority 2006, published 2010).

How the values were obtained:
Format in all cases: cell-based, human
cyclin D1 = experiment: Gene array (microarray) analysis of cyclin D1 expression; conditions: PC3 cells, 2 μg/ml, 2 days
Description: FIGS. 2A-2D. Mahanine down-regulates cyclin D1 expression in prostate and other cancer cells. FIG. 2A: Microarray analyses showing PC3 cells treated with (2 μg/ml) mahanine (+) or vehicle (−) for 2 days and RNA was extracted and microarray analysis was performed. FIG. 2B and FIG. 2C: PC3 (left panel) and LNCaP (right panel) cells were treated with 0, 1, 2 and 3 μg/ml mahanine for 3 days. RNA was extracted, and RT-PCR assays were performed to detect cyclin D1 and GAPDH mRNAs. Representative photograph from an experiment that was repeated thrice. Quantitative estimations of relative levels of cyclin D1 mRNAs (lower panel) were determined by densitometric measurements of RT-PCR gels from three independent experiments after normalization with GAPDH. […]
Microarray analysis: Total RNA was isolated from […] cells treated with or without mahanine using TRIZOL reagent (Invitrogen Corp., Carlsbad, Calif.). […] RNA was evaluated by electrophoresis before continuing with probe synthesis and hybridization. […] Following repetitive washing in saline-sodium citrate/SDS, hybridized cDNA probes were detected by chemiluminescence. […] Bound biotinylated cDNA probe was detected with alkaline phosphatase-conjugated streptavidin and CDP-Star chemiluminescent substrate (SuperArray). […]

cyclin A1 = experiment: RT-PCR of cyclin A1 mRNA in prostate cancer cells; conditions: PC3 or LNCaP cells, mahanine treatment
cyclin B1 = experiment: RT-PCR of cyclin B1 mRNA in prostate cancer cells; conditions: PC3 or LNCaP cells, mahanine treatment
Description: (§1) FIG. 5. RASSF1A down-regulates cyclin D1 expression in prostate cancer cells but not other cyclins. […] RNA was extracted, and RT-PCR assays were performed to detect RASSF1A, cyclin A1, B1, D1, E1 and GAPDH mRNAs. Representative photograph from an experiment that was repeated thrice. Quantitative estimations of relative levels of cyclin D1 and RASSF1A mRNAs were determined by densitometric measurements of RT-PCR gels from three independent experiments after normalization with GAPDH.
(§2) Genes of interest were amplified using 500 ng of total RNA reverse-transcribed to cDNA using a Superscript II kit (Invitrogen) with random hexamers. Human-specific primers were designed using the Primer Quest program and purchased from Integrated DNA Technologies, Inc (Coralville, Iowa). […] After amplification, PCR products were separated on 1.5% agarose gels and visualized by ethidium bromide fluorescence using the Fuji LAS-1000 Imager. […] Band intensities were quantified by using ImageJ software (NIH, Bethesda, Md.).

cyclin E1 = experiment: RT-PCR of cyclin E1 mRNA in prostate cancer cells; conditions: PC3 or LNCaP cells, mahanine treatment
Description: as §1, §2

## CC(C)=CCC[C@@]1(C)C=Cc2c(c(C)cc3c2[nH]c2cc(O)ccc23)O1 [mahanine]
Cyclin D1
  cyclin D1 expression (gene array): down-regulated the expression of cyclin D1
Cyclin A1
  cyclin A1 expression (RT-PCR): did not alter the expression
Cyclin B1
  cyclin B1 expression (RT-PCR): did not alter the expression
Cyclin E1
  cyclin E1 expression (RT-PCR): did not alter the expression
